# Measured values reported in PMC8179002, “Inhibitors of thiol-mediated uptake” (Chemical Science, 2020).
# Where two headings read alike, the source gives them in different places. Bridge positions count the residues as written; N and C are the ends. Peptide text beside a SMILES is read from it.
# Tests used:
# [1] = system: cellular uptake of 1 in HeLa Kyoto cells; test: cells; assay type: cell-based; conditions: for IC50: read-out: IC50, inhibition of cellular uptake of 1; for minimal effective concentration: read-out: MIC, inhibition of cellular uptake of 1; for MIC (concentration that causes ∼15% reduction of reporter uptake), against reporter 1: pre-incubation time not given (Fig. 2: 1 h pre-incubation, 30 min with reporter; some 15 min)
# Procedure, shortened: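 HeLa Kyoto cells were pre-incubated with inhibitors at varying concentrations and times, washed, then given reporter 1 at 10 μM final for 30 min at 37°C; alternatively, inhibitors were kept during reporter exposure. Hoechst/PI staining and 10x high-content imaging gave mean intracellular fluorescence per cell and viability from PI-negative nuclei.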
# [2] = system: cellular uptake of 2 in HeLa Kyoto cells; test: cells; assay type: cell-based
# [3] = HeLa Kyoto, 0.5 h, HeLa, tpre 0.5 h with inhibitor, removal, tinc 0.5 h with 1 (10 µM)
# [4] = HeLa Kyoto, 0.5 h, HeLa, tpre 5.5 h with FBS, then tco 0.5 h co-incubation of inhibitor and 1 (10 µM)
# [5] = HeLa Kyoto, 0.5 h, HeLa, tpre 23.5 h with FBS, then tco 0.5 h co-incubation of inhibitor and 1 (10 µM)
# [6] = HeLa Kyoto, 1 h, HeLa, tpre 1 h with inhibitor, removal, tinc 0.5 h with 1 (10 µM)
# [7] = HeLa Kyoto, HeLa, tpre 1 h with inhibitor, removal, tinc 0.5 h with 1 (10 µM)
# [8] = HeLa Kyoto, HeLa, tpre 5.5 h with FBS, then tco 0.5 h co-incubation of inhibitor and 1 (10 µM)
# [9] = HeLa Kyoto, HeLa, tpre 23.5 h with FBS, then tco 0.5 h co-incubation of inhibitor and 1 (10 µM)
# [10] = HeLa Kyoto, read-out: IC50, inhibition of cellular uptake of 2, HeLa, tpre 4 h with inhibitor, removal, tinc 0.5 h with 2 (10 µM)
# [11] = HeLa, tpre 4 h with inhibitor, removal, tinc 0.5 h with 2 (10 µM)
# [12] = HeLa, tpre 0.5 h with inhibitor, removal, tinc 0.5 h with 1 (10 µM)
# [13] = HeLa, tpre 1 h with inhibitor, removal, tinc 0.5 h with 1 (10 µM)
# [14] = HeLa, tpre 2 h with inhibitor, removal, tinc 0.5 h with 1 (10 µM)
# [15] = HeLa, tpre 0.5 h, then tco 0.5 h co-incubation of inhibitor and 2 (10 µM)
# [16] = HeLa, tpre 0.5 h, then tco 0.5 h co-incubation of inhibitor and 2 (10 µM), read-out: IC50, inhibition of cellular uptake of 2
# [17] = HeLa, tpre 1 h with inhibitor, removal, tinc 0.5 h with 2 (10 µM)
# [18] = HeLa, tpre 1 h with inhibitor, removal, tinc 0.5 h with 2 (10 µM), read-out: IC50, inhibition of cellular uptake of 2
# [19] = HeLa, tpre 1.5 h, then tco 0.5 h co-incubation of inhibitor and 2 (10 µM)
# [20] = HeLa, tpre 1.5 h, then tco 0.5 h co-incubation of inhibitor and 2 (10 µM), read-out: IC50, inhibition of cellular uptake of 2
# [21] = HeLa, tpre 2 h with inhibitor, removal, tinc 0.5 h with 2 (10 µM)
# [22] = HeLa, tpre 2 h with inhibitor, removal, tinc 0.5 h with 2 (10 µM), read-out: IC50, inhibition of cellular uptake of 2
# [23] = HeLa, tpre 4 h with inhibitor, removal, tinc 0.5 h with 2 (10 µM), read-out: IC50, inhibition of cellular uptake of 2
Structure (SMILES),"minimal effective concentration [1, 4] [µM]","minimal effective concentration [1, 5] [µM]","minimal effective concentration [1, 6] [µM]","IC50 [1, 7] [µM]","IC50 [1, 8] [µM]","IC50 [1, 9] [µM]","IC50 [2, 10] [µM]","MIC, inhibition of cellular uptake of 2 [2, 11] [µM]",minimal effective concentration ([1]; 2 h) [µM],"MIC (concentration that causes ∼15% reduction of reporter uptake), against reporter 1 ([1]; HeLa)","IC50 [1, 12] [µM]","IC50 [1, 13] [µM]","IC50 [1, 14] [µM]","MIC, inhibition of cellular uptake of 2 [2, 15] [µM]","IC50 [2, 16] [µM]","MIC, inhibition of cellular uptake of 2 [2, 17] [µM]","IC50 [2, 18] [µM]","MIC, inhibition of cellular uptake of 2 [2, 19] [µM]","IC50 [2, 20] [µM]","MIC, inhibition of cellular uptake of 2 [2, 21] [µM]",other results
O=C(O)CC[C@H](NC(=O)CCCCC1CCSS1(=O)=O)C(=O)O (some centres unmarked) [compound 15],65,55,50,306 ± 30,258 ± 33,219 ± 16,> 500,150,–,–,–,–,–,–,–,–,–,–,–,–,"IC50 [1, 3]: 407 ± 49 µM; minimal effective concentration [1, 3]: 100 µM; minimal effective concentration ([1]; HeLa Kyoto, 2 h, HeLa, tpre 2 h with inhibitor, removal, tinc 0.5 h with 1 (10 µM)): 50 µM; IC50 ([1]; HeLa Kyoto, HeLa, tpre 2 h with inhibitor, removal, tinc 0.5 h with 1 (10 µM)): 298 ± 31 µM; IC50 ([2]; HeLa Kyoto, read-out: IC50, inhibition of cellular uptake of 2, HeLa, tpre 23.5 h with FBS, then tco 0.5 h co-incubation of inhibitor and 2 (10 µM)): > 500 µM; MIC, inhibition of cellular uptake of 2 ([2]; HeLa, tpre 23.5 h with FBS, then tco 0.5 h co-incubation of inhibitor and 2 (10 µM)): < 20 µM"
O=S1(=O)C[C@H](O)[C@H](O)CS1 [compound 16],10,150,200,> 1000,150 ± 30,860 ± 60,183 ± 18,20,–,–,–,–,–,–,–,–,–,–,–,–,"MIC against reporter 2 ([2]; HeLa, longer pre-incubation (Fig. 2: 4 h pre-incubation)): ~20 µM"
N[C@H]1CSSC[C@@H](C(=O)NCC(=O)O)NC(=O)[C@H](CCC(=O)O)NC1=O [compound 18] (H-CECG-OH; disulfide 1-3),–,–,–,–,–,–,–,100,200,≈ 300 μM,> 2000,> 2000,> 2000,4,44 ± 5,300,> 1000,4,41 ± 4,200,"IC50 ([1]; HeLa, tpre 0.5 h, then tco 0.5 h co-incubation of inhibitor and 1 (10 µM)): > 500 µM; IC50 ([1]; HeLa, tpre 5.5 h with FBS, then tco 0.5 h co-incubation of inhibitor and 1 (10 µM)): 1000 ± 110 µM; IC50 ([1]; HeLa, tpre 23.5 h with FBS, then tco 0.5 h co-incubation of inhibitor and 1 (10 µM)): 1000 ± 40 µM; IC50 [2, 22]: > 1000 µM; IC50 [2, 23]: 859 ± 140 µM; MIC against reporter 2 ([2]; HeLa, upon co-incubation): ≈ 5 μM"
N[C@H]1CSSC[C@@H](C(=O)N[C@@H](CCC(=O)O)C(=O)O)NC(=O)CNC1=O [compound 19] (H-CGCE-OH; disulfide 1-3),–,–,–,–,–,–,–,900,400,≈ 300 μM,> 2000,> 2000,> 2000,5,46 ± 5,> 1000,> 1000,7,58 ± 10,> 1000,"minimal effective concentration ([1]; 1 h): 400 µM; IC50 [2, 22]: > 1000 µM; IC50 [2, 23]: > 1000 µM; MIC against reporter 2 ([2]; HeLa, upon co-incubation): ≈ 5 μM"
